The values that follow come from ChEMBL document CHEMBL1909046, “DrugMatrix in vitro pharmacology data”.

The structures appear in SMILES notation.

The target in the first test is Vasopressin V1a receptor (Homo sapiens, UniProt P37288). Also: in other assays of this panel Not Active means under 50% inhibition at 10 µM.
Chain of Vasopressin V1a receptor (P37288 whole entry): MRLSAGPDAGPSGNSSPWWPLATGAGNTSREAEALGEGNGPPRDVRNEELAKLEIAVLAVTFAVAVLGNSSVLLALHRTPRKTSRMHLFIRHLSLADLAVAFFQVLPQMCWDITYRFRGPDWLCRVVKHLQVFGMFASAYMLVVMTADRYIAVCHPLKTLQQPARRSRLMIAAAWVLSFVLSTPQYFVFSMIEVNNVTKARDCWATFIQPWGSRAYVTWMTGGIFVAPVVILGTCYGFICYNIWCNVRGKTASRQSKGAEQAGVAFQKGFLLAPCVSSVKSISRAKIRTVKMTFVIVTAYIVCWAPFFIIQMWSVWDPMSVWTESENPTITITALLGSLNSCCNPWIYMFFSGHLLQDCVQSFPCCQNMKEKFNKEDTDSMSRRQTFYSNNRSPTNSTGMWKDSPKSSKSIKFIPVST
Test: not given
The format is cell membranes, Membrane. Conditions: hek293.
For `C[C@](N)(Cc1ccc(O)cc1)C(=O)O` [METYROSINE], the IC50 result is reported as “Not Active”.

Regarding `CCC[C@@H]1C[C@@H](C(=O)N[C@@H]([C@H]2O[C@H](SC)[C@H](O)[C@@H](O)[C@H]2O)[C@@H](C)O)N(C)C1` [LINCOMYCIN], the IC50 entry is reported as “Not Active”.

The target in another test is Mitogen-activated protein kinase 1 (Homo sapiens, UniProt P28482). As to the kind of experiment: DRUGMATRIX: Protein Serine/Threonine Kinase, ERK2 enzyme inhibition (substrate: Myelin Basic Protein). Also on record: species or system Escherichia coli. Particulars: Not Active = under 50% inhibition at 10 µM.
Chain of Mitogen-activated protein kinase 1 (P28482 whole entry): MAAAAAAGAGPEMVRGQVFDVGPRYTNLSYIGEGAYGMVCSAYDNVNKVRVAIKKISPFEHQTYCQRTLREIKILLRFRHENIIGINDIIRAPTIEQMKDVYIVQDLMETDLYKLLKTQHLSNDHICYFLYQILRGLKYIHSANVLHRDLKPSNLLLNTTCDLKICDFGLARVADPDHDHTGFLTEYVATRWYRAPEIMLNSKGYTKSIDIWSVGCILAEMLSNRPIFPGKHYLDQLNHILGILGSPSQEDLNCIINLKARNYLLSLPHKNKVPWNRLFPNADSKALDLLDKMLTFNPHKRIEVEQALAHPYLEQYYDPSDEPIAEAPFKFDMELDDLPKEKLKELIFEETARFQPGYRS
Turning to `C[C@](N)(Cc1ccc(O)cc1)C(=O)O` [METYROSINE], the IC50 entry is recorded as “Not Active”.

Turning to `CCC[C@@H]1C[C@@H](C(=O)N[C@@H]([C@H]2O[C@H](SC)[C@H](O)[C@@H](O)[C@H]2O)[C@@H](C)O)N(C)C1` [LINCOMYCIN], the IC50 result is “Not Active”.

A further test concerns the target T1, Cysteinyl leukotriene receptor 1 (Homo sapiens, UniProt Q9Y271). Also: in other assays of this panel Not Active means under 50% inhibition at 10 µM.
T1 sequence (Q9Y271 whole entry): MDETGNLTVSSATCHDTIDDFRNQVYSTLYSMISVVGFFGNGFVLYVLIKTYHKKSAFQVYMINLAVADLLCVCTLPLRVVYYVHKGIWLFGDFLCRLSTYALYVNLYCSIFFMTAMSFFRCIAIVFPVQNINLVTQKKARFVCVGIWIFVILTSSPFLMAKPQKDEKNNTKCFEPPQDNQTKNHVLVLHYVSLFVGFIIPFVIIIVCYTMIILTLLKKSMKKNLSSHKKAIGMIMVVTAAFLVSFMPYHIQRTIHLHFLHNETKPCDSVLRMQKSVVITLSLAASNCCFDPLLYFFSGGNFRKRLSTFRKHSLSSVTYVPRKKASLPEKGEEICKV
Test: not given
The format is cell membranes, CHO-K1, Membrane. Conditions: cho-k1.
As for `C[C@](N)(Cc1ccc(O)cc1)C(=O)O` [METYROSINE], the IC50 entry was “Not Active”.

`CCC[C@@H]1C[C@@H](C(=O)N[C@@H]([C@H]2O[C@H](SC)[C@H](O)[C@@H](O)[C@H]2O)[C@@H](C)O)N(C)C1` [LINCOMYCIN]: the IC50 entry was “Not Active”.

The target of the next test is T2, C-C chemokine receptor type 4 (Homo sapiens, UniProt P51679). Also: in other assays of this panel Not Active means under 50% inhibition at 10 µM.
T2 sequence (P51679 whole entry): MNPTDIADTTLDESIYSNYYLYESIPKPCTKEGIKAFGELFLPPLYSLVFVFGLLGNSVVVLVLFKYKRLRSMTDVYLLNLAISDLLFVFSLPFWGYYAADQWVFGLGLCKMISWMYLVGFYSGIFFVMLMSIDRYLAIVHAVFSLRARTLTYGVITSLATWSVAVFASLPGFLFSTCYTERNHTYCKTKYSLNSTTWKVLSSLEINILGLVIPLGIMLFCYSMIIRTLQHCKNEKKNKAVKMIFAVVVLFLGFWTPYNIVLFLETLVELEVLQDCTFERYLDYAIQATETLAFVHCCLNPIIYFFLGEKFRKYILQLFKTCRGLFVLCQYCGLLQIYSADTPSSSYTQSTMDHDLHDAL
Test: not given
The format is cell membranes, Membrane. Conditions: chem-1.
As to `C[C@](N)(Cc1ccc(O)cc1)C(=O)O` [METYROSINE], the IC50 entry was “Not Active”.

For the molecule `CCC[C@@H]1C[C@@H](C(=O)N[C@@H]([C@H]2O[C@H](SC)[C@H](O)[C@@H](O)[C@H]2O)[C@@H](C)O)N(C)C1` [LINCOMYCIN], the IC50 result was “Not Active”.

The target in another test is T3, Adenosine receptor A3 (Homo sapiens, UniProt P0DMS8).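 Also: radioligand binding assay with AB-MECA serving as the labeled ligand; in other assays of this panel Not Active means under 50% inhibition at 10 µM.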
T3 sequence (P0DMS8 whole entry): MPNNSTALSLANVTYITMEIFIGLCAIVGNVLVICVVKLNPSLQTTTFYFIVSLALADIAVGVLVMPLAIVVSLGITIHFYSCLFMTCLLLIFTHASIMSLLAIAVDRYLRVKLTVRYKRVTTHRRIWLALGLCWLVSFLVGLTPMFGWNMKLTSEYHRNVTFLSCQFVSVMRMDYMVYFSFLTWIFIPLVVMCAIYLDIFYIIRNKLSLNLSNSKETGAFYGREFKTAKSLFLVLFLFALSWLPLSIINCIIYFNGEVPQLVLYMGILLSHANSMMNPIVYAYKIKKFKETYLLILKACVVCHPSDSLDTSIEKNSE
Test: not given
It counts as cell membranes, CHO-K1, Membrane. Conditions: cho-k1.
On to `C[C@](N)(Cc1ccc(O)cc1)C(=O)O` [METYROSINE], for which the IC50 result is reported as “Not Active”.

For the molecule `CCC[C@@H]1C[C@@H](C(=O)N[C@@H]([C@H]2O[C@H](SC)[C@H](O)[C@@H](O)[C@H]2O)[C@@H](C)O)N(C)C1` [LINCOMYCIN], the IC50 result is “Not Active”.

Test system in another test: not listed separately
Put plainly: DRUGMATRIX: Glutamate, NMDA, Agonism radioligand binding (ligand: [3H] CGP-39653). Particulars: Not Active = under 50% inhibition at 10 µM. It counts as cell membranes, Rattus norvegicus, Wistar, Cerebral cortex, Membrane.
As to `C[C@](N)(Cc1ccc(O)cc1)C(=O)O` [METYROSINE], the IC50 entry is reported as “Not Active” and the Ki result is “Not Active”.

`CCC[C@@H]1C[C@@H](C(=O)N[C@@H]([C@H]2O[C@H](SC)[C@H](O)[C@@H](O)[C@H]2O)[C@@H](C)O)N(C)C1` [LINCOMYCIN]: the IC50 entry is reported as “Not Active” and the Ki result is recorded as “Not Active”.

Test system in the next test: not listed separately
Put plainly: DRUGMATRIX: Phorbol Ester radioligand binding (ligand: [3H] PDBu). The format is cell membranes, Mus musculus, ICR, Brain, Membrane. Conditions: Not Active = under 50% inhibition at 10 µM.
On to `C[C@](N)(Cc1ccc(O)cc1)C(=O)O` [METYROSINE], for which the IC50 result is listed as “Not Active” and the Ki result was “Not Active”.

`CCC[C@@H]1C[C@@H](C(=O)N[C@@H]([C@H]2O[C@H](SC)[C@H](O)[C@@H](O)[C@H]2O)[C@@H](C)O)N(C)C1` [LINCOMYCIN]: the IC50 result is listed as “Not Active” and the Ki result is on record as “Not Active”.

Another test has as its target T4, Interstitial collagenase (Homo sapiens, UniProt P03956).
T4 sequence (P03956 whole entry): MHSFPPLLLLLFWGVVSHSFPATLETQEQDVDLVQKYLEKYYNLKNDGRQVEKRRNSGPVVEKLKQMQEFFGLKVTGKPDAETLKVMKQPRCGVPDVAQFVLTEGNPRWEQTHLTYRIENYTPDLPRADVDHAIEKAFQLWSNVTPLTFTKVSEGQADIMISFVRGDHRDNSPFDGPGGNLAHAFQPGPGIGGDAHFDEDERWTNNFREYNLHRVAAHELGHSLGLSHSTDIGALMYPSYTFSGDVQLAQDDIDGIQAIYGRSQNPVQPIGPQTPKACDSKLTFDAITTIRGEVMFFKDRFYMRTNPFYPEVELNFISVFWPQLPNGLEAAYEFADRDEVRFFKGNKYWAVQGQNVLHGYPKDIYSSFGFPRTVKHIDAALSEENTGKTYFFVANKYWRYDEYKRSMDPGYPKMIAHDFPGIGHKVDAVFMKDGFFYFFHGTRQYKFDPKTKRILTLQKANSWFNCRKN
Test: not given
It counts as tissue-based, Rheumatoid synovial fibroblasts.
Conditions: not given
On to `C[C@](N)(Cc1ccc(O)cc1)C(=O)O` [METYROSINE], for which the IC50 entry was “Not Active”.

Regarding `CCC[C@@H]1C[C@@H](C(=O)N[C@@H]([C@H]2O[C@H](SC)[C@H](O)[C@@H](O)[C@H]2O)[C@@H](C)O)N(C)C1` [LINCOMYCIN], the IC50 result is listed as “Not Active”.

The target in a further test is T5, C-X-C chemokine receptor type 2 (Homo sapiens, UniProt P25025). Also: in other assays of this panel Not Active means under 50% inhibition at 10 µM.
T5 sequence (P25025 whole entry): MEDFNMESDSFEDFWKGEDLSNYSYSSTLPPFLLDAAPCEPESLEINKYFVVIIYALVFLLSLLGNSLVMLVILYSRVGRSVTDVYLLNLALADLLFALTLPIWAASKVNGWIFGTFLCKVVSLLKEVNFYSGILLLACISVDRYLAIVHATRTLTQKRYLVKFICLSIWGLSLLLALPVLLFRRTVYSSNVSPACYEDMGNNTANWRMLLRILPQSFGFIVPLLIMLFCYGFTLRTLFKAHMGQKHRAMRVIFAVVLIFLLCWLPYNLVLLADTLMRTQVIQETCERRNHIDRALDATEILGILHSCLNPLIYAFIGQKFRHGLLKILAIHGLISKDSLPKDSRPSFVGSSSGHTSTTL
Test: not given
The format is cell membranes, Membrane. Particulars: cho-k1.
With `C[C@](N)(Cc1ccc(O)cc1)C(=O)O` [METYROSINE], the IC50 entry was “Not Active”.

With `CCC[C@@H]1C[C@@H](C(=O)N[C@@H]([C@H]2O[C@H](SC)[C@H](O)[C@@H](O)[C@H]2O)[C@@H](C)O)N(C)C1` [LINCOMYCIN], the IC50 result is given as “Not Active”.

The target of another test is T6, Neuropeptide Y receptor type 1 (Homo sapiens, UniProt P25929). Also: in other assays of this panel Not Active means under 50% inhibition at 10 µM.
T6 sequence (P25929 whole entry): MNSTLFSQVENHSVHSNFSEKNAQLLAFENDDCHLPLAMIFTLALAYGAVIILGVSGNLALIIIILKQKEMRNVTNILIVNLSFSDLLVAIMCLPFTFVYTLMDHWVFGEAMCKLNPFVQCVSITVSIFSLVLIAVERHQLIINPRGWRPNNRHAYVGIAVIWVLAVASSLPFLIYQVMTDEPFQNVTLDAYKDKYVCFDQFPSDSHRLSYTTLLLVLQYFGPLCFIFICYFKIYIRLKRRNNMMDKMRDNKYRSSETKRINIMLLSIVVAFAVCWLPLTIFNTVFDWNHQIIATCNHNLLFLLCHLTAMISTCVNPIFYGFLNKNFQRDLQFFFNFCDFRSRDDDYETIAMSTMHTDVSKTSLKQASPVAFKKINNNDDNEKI
Test: not given
Conditions: sk-n-mc. It counts as cell membranes, Membrane.
On to `C[C@](N)(Cc1ccc(O)cc1)C(=O)O` [METYROSINE], for which the IC50 entry is “Not Active”.

On to `CCC[C@@H]1C[C@@H](C(=O)N[C@@H]([C@H]2O[C@H](SC)[C@H](O)[C@@H](O)[C@H]2O)[C@@H](C)O)N(C)C1` [LINCOMYCIN], for which the IC50 result is recorded as “Not Active”.

Test system in another test: not listed separately
As to the kind of experiment: DRUGMATRIX: Glutamate, NMDA, Phencyclidine radioligand binding (ligand: [3H] TCP). The format is cell membranes, Rattus norvegicus, Wistar, Cerebral cortex, Membrane. Particulars: Not Active = under 50% inhibition at 10 µM.
For the molecule `C[C@](N)(Cc1ccc(O)cc1)C(=O)O` [METYROSINE], the IC50 result was “Not Active” and the Ki result is reported as “Not Active”.

As for `CCC[C@@H]1C[C@@H](C(=O)N[C@@H]([C@H]2O[C@H](SC)[C@H](O)[C@@H](O)[C@H]2O)[C@@H](C)O)N(C)C1` [LINCOMYCIN], the IC50 entry is on record as “Not Active” and the Ki entry was “Not Active”.

The target in another test is T7, Leukotriene C4 synthase (Cavia porcellus, UniProt A6XA80).
T7 sequence (A6XA80 whole entry): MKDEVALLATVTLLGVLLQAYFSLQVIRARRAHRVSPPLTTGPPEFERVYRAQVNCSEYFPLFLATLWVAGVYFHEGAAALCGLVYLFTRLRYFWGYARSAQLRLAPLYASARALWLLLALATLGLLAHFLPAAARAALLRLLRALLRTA
Put plainly: biochemical. It counts as tissue-based, Lung.
Conditions: not given
As to `C[C@](N)(Cc1ccc(O)cc1)C(=O)O` [METYROSINE], the IC50 entry is listed as “Not Active”.

Consider `CCC[C@@H]1C[C@@H](C(=O)N[C@@H]([C@H]2O[C@H](SC)[C@H](O)[C@@H](O)[C@H]2O)[C@@H](C)O)N(C)C1` [LINCOMYCIN], for which the IC50 entry is on record as “Not Active”.
